Reference: US12157741B2, “Macrocyclic inhibitors of DYRK1A” (DANA-FARBER CANCER INSTITUTE, INC., priority 2018, dated 2024)
Like-named read-outs stand apart in the source and are kept apart here.

Assays:
Type in all cases: binding
various enzymes [1] = target: various enzymes (Homo sapiens, UniProt P57078); details: compound 1 uM
Experimental: (§1) Ambit profiling was conducted in accordance with the manufacturer's instructions.

various enzymes [2] = target: various enzymes (Homo sapiens, UniProt P00533, DEL752-759); details: compound 1 uM
Experimental: as §1

various enzymes [3] = target: various enzymes (Homo sapiens, UniProt Q09013); details: compound 1 uM
Experimental: as §1

various enzymes [4] = target: various enzymes (Homo sapiens, UniProt O94921); details: compound 1 uM
Experimental: as §1

various enzymes [5] = target: various enzymes (Homo sapiens, UniProt P41743); details: compound 1 uM
various enzymes (Homo sapiens, UniProt P41743), sequence (P41743 whole entry): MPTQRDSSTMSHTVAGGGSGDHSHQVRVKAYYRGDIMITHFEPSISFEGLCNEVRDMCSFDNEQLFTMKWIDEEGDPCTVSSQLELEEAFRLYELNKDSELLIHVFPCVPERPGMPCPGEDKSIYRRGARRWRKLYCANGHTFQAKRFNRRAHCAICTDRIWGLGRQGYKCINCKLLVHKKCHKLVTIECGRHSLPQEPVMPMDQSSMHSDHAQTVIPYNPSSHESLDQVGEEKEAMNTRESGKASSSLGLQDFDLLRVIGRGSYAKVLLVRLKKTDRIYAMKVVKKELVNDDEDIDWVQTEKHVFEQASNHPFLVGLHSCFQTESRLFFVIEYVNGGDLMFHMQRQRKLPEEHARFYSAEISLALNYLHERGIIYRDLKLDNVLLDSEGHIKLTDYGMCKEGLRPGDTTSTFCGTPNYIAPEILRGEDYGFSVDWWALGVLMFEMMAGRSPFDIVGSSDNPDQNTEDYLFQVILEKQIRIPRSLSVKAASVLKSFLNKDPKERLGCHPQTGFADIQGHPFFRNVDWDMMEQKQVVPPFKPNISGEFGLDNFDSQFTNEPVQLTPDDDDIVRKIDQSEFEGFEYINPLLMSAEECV
Experimental: as §1

various enzymes [6] = target: various enzymes (Homo sapiens, UniProt Q9UK32); details: compound 1 uM
various enzymes (Homo sapiens, UniProt Q9UK32), sequence (Q9UK32 whole entry): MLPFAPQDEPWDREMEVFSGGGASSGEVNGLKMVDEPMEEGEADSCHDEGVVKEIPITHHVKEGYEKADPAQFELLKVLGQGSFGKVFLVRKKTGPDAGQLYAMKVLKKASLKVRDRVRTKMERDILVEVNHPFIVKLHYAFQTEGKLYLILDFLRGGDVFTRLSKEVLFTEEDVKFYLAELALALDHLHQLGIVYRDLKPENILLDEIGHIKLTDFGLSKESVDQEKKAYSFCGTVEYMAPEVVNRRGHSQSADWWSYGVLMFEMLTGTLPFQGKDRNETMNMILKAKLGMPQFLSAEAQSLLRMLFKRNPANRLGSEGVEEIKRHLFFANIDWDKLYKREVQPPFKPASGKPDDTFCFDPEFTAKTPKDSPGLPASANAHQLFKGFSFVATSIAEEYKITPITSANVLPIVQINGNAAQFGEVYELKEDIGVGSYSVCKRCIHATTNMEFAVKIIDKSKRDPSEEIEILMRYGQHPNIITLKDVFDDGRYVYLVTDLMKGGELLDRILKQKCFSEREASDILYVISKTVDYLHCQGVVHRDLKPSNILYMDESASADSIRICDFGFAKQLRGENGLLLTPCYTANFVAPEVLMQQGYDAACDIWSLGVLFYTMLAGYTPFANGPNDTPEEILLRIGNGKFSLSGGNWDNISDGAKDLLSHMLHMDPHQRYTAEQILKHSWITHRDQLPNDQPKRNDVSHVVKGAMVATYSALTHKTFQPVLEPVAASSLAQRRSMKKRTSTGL
Experimental: as §1

various enzymes [7] = target: various enzymes (Homo sapiens, UniProt Q9P0L2); details: compound 1 uM
Experimental: as §1

various enzymes [8] = target: various enzymes (Homo sapiens, UniProt O75116); details: compound 1 uM
Experimental: as §1

various enzymes [9] = target: various enzymes (Homo sapiens, UniProt Q86YV6); details: compound 1 uM
Experimental: as §1

various enzymes [10] = target: various enzymes (Homo sapiens, UniProt P42338); details: compound 1 uM
Experimental: as §1

various enzymes [11] = target: various enzymes (Homo sapiens, UniProt O15075); details: compound 1 uM
various enzymes (Homo sapiens, UniProt O15075), sequence (O15075 whole entry): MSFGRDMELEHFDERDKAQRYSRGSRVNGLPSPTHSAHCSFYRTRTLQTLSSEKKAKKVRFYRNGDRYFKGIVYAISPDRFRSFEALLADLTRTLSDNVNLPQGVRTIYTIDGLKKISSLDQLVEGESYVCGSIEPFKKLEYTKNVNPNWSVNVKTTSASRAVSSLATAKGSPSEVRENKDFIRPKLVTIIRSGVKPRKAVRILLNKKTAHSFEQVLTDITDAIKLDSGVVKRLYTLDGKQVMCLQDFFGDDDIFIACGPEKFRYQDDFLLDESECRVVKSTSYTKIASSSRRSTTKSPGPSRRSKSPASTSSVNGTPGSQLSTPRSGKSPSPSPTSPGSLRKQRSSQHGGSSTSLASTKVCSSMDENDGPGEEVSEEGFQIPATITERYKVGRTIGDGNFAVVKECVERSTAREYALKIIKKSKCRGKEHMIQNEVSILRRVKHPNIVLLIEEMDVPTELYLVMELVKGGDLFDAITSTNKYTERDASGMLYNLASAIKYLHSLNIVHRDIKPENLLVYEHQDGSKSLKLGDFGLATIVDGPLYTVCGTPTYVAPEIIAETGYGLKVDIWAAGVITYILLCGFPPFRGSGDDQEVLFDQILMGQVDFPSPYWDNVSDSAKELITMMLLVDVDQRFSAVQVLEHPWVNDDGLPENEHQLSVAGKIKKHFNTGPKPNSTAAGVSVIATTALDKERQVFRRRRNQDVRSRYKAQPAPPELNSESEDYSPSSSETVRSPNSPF
Experimental: as §1

various enzymes [12] = target: various enzymes (Homo sapiens, UniProt O75582); details: compound 1 uM
various enzymes (Homo sapiens, UniProt O75582), sequence (O75582 whole entry): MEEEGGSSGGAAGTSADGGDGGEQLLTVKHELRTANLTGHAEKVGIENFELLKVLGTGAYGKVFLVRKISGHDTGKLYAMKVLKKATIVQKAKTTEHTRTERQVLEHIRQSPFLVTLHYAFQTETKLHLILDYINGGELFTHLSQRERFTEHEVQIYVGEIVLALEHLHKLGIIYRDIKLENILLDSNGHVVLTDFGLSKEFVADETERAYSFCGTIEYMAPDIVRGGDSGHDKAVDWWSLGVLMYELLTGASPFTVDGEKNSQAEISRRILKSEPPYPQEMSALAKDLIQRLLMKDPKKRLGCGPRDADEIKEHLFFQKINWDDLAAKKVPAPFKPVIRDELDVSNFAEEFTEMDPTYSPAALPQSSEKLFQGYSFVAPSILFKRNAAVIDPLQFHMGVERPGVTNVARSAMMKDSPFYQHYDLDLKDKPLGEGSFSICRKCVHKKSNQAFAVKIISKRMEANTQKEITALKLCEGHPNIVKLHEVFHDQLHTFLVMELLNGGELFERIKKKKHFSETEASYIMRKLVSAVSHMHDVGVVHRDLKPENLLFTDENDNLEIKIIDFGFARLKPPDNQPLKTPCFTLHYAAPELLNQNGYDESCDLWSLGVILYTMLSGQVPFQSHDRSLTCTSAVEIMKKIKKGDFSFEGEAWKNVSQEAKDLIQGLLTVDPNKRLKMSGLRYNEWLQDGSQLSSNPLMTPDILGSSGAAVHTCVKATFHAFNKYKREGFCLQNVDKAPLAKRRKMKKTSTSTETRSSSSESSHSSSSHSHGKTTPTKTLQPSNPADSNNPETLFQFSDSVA
Experimental: as §1

various enzymes [13] = target: various enzymes (Homo sapiens, UniProt Q9UHD2); details: compound 1 uM
Experimental: as §1

various enzymes [14] = target: various enzymes (Homo sapiens, UniProt Q15569); details: compound 1 uM
Experimental: as §1

various enzymes [15] = target: various enzymes (Homo sapiens, UniProt O15111); details: compound 1 uM
Experimental: as §1

various enzymes [16] = target: various enzymes (Homo sapiens, UniProt Q6DT37); details: compound 1 uM
Experimental: as §1

various enzymes [17] = target: various enzymes (Homo sapiens, UniProt Q15303); details: compound 1 uM
Experimental: as §1

various enzymes [18] = target: various enzymes (Homo sapiens, UniProt O75676); details: compound 1 uM
various enzymes (Homo sapiens, UniProt O75676), sequence (O75676 whole entry): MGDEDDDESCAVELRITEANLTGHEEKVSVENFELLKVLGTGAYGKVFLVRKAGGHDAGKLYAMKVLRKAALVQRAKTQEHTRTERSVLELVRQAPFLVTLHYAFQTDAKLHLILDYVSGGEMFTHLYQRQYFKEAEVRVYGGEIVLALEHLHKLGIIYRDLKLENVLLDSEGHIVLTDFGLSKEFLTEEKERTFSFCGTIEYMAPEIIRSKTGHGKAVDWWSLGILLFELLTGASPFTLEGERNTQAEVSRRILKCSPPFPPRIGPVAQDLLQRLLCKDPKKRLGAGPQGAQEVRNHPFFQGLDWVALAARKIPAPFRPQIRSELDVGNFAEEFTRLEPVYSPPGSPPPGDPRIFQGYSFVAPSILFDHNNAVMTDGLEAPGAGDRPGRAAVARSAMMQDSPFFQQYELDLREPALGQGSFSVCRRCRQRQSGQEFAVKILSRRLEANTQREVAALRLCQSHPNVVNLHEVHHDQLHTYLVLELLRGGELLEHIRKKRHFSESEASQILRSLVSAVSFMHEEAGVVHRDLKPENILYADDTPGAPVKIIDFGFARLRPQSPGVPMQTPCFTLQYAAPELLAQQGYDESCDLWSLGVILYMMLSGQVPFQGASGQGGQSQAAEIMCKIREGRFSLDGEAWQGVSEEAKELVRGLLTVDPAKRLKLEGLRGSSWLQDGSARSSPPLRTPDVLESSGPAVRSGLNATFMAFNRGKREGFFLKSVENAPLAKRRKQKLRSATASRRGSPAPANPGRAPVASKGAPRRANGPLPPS
Experimental: as §1

various enzymes [19] = target: various enzymes (Homo sapiens, UniProt Q00526); details: compound 1 uM
Experimental: as §1

various enzymes [20] = target: various enzymes (Homo sapiens, UniProt P42336, H1047L)
Experimental: as §1

various enzymes [21] = target: various enzymes (Homo sapiens, UniProt Q13163); details: compound 1 uM
Experimental: as §1

various enzymes [22] = target: various enzymes (Homo sapiens, UniProt P00533, DEL746-750); details: compound 1 uM
Experimental: as §1

various enzymes [23] = target: various enzymes (Homo sapiens, UniProt P36888, D835V)
Experimental: as §1

various enzymes [24] = target: various enzymes (Homo sapiens, UniProt Q9P289); details: compound 1 uM
Experimental: as §1

various enzymes [25] = target: various enzymes (Homo sapiens, UniProt P36897); details: compound 1 uM
various enzymes (Homo sapiens, UniProt P36897), sequence (P36897 34-503): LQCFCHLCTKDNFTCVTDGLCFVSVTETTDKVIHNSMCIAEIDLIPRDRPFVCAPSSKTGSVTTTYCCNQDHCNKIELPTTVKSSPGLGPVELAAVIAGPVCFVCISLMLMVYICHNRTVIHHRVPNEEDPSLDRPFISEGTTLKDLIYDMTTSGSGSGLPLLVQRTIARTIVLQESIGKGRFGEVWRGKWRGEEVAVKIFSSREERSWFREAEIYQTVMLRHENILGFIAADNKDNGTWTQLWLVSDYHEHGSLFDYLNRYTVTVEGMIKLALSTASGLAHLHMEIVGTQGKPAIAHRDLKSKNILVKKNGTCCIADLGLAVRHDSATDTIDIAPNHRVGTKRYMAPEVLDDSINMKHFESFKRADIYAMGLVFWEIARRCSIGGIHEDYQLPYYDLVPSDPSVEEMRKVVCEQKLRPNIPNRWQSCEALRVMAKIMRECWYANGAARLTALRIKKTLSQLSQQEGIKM
Experimental: as §1

various enzymes [26] = target: various enzymes (Homo sapiens, UniProt P06213); details: compound 1 uM
Experimental: as §1

various enzymes [27] = target: T1, various enzymes (Homo sapiens, UniProt Q9NRM7); details: compound 1 uM
T1 sequence (Q9NRM7 1-1088): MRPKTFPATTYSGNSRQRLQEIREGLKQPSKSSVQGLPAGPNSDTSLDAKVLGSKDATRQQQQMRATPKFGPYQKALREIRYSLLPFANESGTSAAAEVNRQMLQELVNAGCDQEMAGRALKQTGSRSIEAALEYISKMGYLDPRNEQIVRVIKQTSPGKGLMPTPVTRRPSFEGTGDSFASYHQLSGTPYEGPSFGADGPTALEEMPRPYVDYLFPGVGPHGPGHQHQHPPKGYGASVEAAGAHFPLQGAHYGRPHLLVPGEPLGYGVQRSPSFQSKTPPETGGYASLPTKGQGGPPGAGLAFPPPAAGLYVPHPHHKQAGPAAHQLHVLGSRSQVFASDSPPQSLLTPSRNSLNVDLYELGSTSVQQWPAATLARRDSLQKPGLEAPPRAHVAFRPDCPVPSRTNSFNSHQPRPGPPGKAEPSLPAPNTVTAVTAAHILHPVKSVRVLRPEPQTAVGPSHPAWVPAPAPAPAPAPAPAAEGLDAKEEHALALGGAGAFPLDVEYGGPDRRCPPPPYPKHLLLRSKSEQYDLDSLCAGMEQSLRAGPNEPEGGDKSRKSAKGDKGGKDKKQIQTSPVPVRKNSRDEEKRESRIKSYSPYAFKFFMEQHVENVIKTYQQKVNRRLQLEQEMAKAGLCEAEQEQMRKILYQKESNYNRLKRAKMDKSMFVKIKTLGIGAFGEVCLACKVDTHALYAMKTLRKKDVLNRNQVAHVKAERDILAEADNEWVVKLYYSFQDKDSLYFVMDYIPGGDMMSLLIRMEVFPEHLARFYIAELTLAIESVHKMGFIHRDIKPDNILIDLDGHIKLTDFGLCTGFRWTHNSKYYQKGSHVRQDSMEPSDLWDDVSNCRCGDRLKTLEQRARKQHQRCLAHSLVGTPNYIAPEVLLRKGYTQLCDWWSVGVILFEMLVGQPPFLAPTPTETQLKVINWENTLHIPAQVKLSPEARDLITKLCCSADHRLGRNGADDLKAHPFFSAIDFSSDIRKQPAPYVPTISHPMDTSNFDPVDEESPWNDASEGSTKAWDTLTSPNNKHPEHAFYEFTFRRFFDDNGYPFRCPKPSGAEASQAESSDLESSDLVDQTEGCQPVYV
Experimental: as §1

various enzymes [28] = target: various enzymes (Homo sapiens, UniProt P07947); details: compound 1 uM
Experimental: as §1

various enzymes [29] = target: various enzymes (Homo sapiens, UniProt P35590); details: compound 1 uM
Experimental: as §1

various enzymes (Homo sapiens, UniProt P57078), sequence (P57078 whole entry): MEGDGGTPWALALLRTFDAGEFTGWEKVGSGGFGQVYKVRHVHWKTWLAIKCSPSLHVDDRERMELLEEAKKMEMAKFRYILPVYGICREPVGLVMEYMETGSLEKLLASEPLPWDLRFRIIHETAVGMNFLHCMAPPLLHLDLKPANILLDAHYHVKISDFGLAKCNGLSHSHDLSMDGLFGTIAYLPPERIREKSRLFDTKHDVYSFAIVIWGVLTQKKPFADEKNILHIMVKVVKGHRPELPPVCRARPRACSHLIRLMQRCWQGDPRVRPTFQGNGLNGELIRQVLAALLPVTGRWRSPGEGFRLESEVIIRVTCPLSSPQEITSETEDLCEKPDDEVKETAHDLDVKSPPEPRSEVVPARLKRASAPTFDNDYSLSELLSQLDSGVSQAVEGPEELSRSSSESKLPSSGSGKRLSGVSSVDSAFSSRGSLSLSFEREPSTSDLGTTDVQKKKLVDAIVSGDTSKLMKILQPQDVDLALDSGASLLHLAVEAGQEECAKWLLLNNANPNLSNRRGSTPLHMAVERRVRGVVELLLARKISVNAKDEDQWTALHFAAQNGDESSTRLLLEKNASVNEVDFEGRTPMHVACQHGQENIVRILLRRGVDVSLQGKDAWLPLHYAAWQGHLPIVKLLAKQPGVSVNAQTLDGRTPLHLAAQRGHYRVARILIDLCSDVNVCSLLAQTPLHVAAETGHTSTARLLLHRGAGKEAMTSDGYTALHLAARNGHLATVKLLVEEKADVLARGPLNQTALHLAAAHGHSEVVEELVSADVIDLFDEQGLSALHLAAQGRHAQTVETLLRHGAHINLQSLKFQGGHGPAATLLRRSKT

SMILES	Ambit profiling: RIPK4 (various enzymes [1])	Ambit profiling: EGFR(S752-I759del) (various enzymes [2])	Ambit profiling: DMPK (various enzymes [3])	Ambit profiling: PFTK1 (various enzymes [4])	Ambit profiling: PRKCI (various enzymes [5])	Ambit profiling: RSK4(Kin.Dom.1-N-terminal) (various enzymes [6])	Ambit profiling: RSK4(Kin.Dom.2-C-terminal) (various enzymes [6])	Ambit profiling: MARK1 (various enzymes [7])	Ambit profiling: ROCK2 (various enzymes [8])	Ambit profiling: MYLK4 (various enzymes [9])	Ambit profiling: PIK3CB (various enzymes [10])	Ambit profiling: DCAMKL1 (various enzymes [11])	Ambit profiling: RPS6KA5(Kin.Dom.1-N-terminal) (various enzymes [12])	Ambit profiling: RPS6KA5(Kin.Dom.2-C-terminal) (various enzymes [12])	Ambit profiling: TBK1 (various enzymes [13])	Ambit profiling: TESK1 (various enzymes [14])	Ambit profiling: IKK-alpha (various enzymes [15])	Ambit profiling: DMPK2 (various enzymes [16])	Ambit profiling: ERBB4 (various enzymes [17])	Ambit profiling: RPS6KA4(Kin.Dom.1-N-terminal) (various enzymes [18])	also measured
COc1c2c(nn1C)CN(C(C)C)C(=O)CCCn1cc(c(C(F)(F)F)n1)-c1c[nH]c3ncc-2cc13 [Compound 50, (Z)-5-isopropyl-35-methoxy-31-methyl-13-(trifluoromethyl)-11H,21H,31H-5-aza-2(3,5)-pyrrolo[2,3-b]pyridina-1(4,1),3(4,3)-dipyrazolacyclononaphan-6-one]	85	48	100	60	42	2.3	74	39	67	77	100	54	18	72	3.8	69	83	47	32	62	Ambit profiling: RPS6KA4(Kin.Dom.2-C-terminal) (various enzymes [18]): 100; Ambit profiling: CDK3 (various enzymes [19]): 78; Ambit profiling: PIK3CA(H1047L) (various enzymes [20]): 83; Ambit profiling: MEK5 (various enzymes [21]): 0; Ambit profiling: EGFR(E746-A750del) (various enzymes [22]): 5.9; Ambit profiling: FLT3(D835V) (various enzymes [23]): 0; Ambit profiling: MST4 (various enzymes [24]): 60; Ambit profiling: TGFBR1 (various enzymes [25]): 36; Ambit profiling: INSR (various enzymes [26]): 22; Ambit profiling: LATS2 (various enzymes [27]): 97; Ambit profiling: YES (various enzymes [28]): 21; Ambit profiling: TIE1 (various enzymes [29]): 9.2
CC(C)N1Cc2nn(C)cc2-c2cnc3[nH]cc(c3c2)-c2cn(nc2C(F)(F)F)CCCC1=O [Compound 45, (Z)-5-isopropyl-31-methyl-13-(trifluoromethyl)-11H,21H,31H-5-aza-2(3,5)-pyrrolo[2,3-b]pyridina-1(4,1),3(4,3)-dipyrazolacyclononaphan-6-one]	100	66	20	14	9.1	2.6	95	33	100	100	100	80	70	100	0	99	100	53	55	98	Ambit profiling: RPS6KA4(Kin.Dom.2-C-terminal) (various enzymes [18]): 100; Ambit profiling: CDK3 (various enzymes [19]): 33; Ambit profiling: PIK3CA(H1047L) (various enzymes [20]; compound 1 uM): 100; Ambit profiling: MEK5 (various enzymes [21]): 11; Ambit profiling: EGFR(E746-A750del) (various enzymes [22]): 6.4; Ambit profiling: FLT3(D835V) (various enzymes [23]; compound 1 uM): 0; Ambit profiling: MST4 (various enzymes [24]): 24; Ambit profiling: TGFBR1 (various enzymes [25]): 87; Ambit profiling: INSR (various enzymes [26]): 43; Ambit profiling: LATS2 (various enzymes [27]): 100; Ambit profiling: YES (various enzymes [28]): 56; Ambit profiling: TIE1 (various enzymes [29]): 7.2
